{
  "source": "ChEMBL document CHEMBL5236572",
  "about": "“Bioactive Aurones, Indanones, and Other Hemiindigoid Scaffolds: Medicinal Chemistry and Photopharmacology Perspectives” (J Med Chem, 2022)",
  "key": {"RAW264.7": {"system": "RAW264.7", "experiment": "cells", "conditions": "Mus musculus"}, "[1]": {"biological_target": "Amyloid-beta precursor protein (Homo sapiens, UniProt P05067)", "sequence (P05067 whole entry)": "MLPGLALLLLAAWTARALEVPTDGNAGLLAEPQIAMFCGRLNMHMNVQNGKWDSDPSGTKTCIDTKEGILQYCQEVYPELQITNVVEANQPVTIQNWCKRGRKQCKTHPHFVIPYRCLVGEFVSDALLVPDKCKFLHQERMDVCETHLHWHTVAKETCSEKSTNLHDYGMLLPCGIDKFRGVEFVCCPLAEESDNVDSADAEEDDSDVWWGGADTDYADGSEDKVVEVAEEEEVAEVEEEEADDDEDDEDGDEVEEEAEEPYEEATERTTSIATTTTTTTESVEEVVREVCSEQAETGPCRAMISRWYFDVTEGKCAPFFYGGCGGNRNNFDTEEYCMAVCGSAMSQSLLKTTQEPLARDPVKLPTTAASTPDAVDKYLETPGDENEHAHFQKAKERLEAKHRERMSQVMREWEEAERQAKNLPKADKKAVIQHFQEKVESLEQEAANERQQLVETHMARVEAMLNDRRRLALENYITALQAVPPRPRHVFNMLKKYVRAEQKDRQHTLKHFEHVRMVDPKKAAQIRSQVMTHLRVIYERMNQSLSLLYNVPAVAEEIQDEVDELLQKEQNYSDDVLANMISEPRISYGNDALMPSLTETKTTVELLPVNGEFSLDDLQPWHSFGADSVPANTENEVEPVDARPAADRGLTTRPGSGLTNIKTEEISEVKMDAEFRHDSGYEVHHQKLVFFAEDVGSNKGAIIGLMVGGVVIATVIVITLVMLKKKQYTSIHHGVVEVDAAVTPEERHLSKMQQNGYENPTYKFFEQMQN", "experiment": "Binding affinity to human brain amyloid-beta fibril"}, "THP-1 [2]": {"system": "THP-1", "experiment": "Antiinflammatory activity against human THP-1 cells assessed as inhibition of LPS-stimulated iNOS expression at 50 uM incubated for 1 hrs followed by LPS stimulation for 4 hrs by ELISA", "format": "functional", "conditions": "time 5 hrs"}, "THP-1 [3]": {"system": "THP-1", "experiment": "Antiinflammatory activity against human THP-1 cells assessed as inhibition of LPS-stimulated TNF-alpha production at 40 uM incubated for 1 hrs followed by LPS stimulation for 4 hrs by ELISA", "format": "functional", "conditions": "time 5 hrs"}, "[4]": {"biological_target": "Peroxisome proliferator-activated receptor gamma (Homo sapiens, UniProt P37231)", "sequence (P37231 whole entry)": "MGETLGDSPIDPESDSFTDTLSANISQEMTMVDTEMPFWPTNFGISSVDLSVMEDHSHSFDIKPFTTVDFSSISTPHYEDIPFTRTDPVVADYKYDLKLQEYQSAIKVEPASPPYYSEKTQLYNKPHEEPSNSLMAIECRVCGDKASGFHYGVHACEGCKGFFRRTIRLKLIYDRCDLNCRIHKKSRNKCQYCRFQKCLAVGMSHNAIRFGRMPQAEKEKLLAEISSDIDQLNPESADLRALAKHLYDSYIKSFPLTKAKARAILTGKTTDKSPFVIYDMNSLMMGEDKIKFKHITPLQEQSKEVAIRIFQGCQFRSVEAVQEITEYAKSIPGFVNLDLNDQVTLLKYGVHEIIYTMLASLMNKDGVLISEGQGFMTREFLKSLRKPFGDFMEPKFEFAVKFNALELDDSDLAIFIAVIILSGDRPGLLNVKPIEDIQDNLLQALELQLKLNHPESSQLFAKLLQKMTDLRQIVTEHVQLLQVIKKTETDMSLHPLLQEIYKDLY", "experiment": "Binding affinity to PPARgamma (unknown origin) by competitive binding assay"}, "NB-4": {"system": "NB-4", "experiment": "Cytotoxicity against human NB-4 cells assessed as reduction in cell viability by MTT assay", "format": "functional, cell-based"}, "[5]": {"experiment": "Selectivity index, ratio of CC50 for cytotoxicity against human C8166 cells to EC50 for antiviral activity against HIV-1 infected in human C8166 cells", "format": "toxicity, cell-based", "conditions": "read-out: Ratio CC50/EC50"}, "[6]": {"system": "Human immunodeficiency virus 1", "experiment": "Antiviral activity against HIV-1 infected in human C8166 cells assessed as reduction in virus-induced cytopathic effect by MTT assay", "format": "functional, organism-based", "conditions": "Human immunodeficiency virus 1, C8166"}, "SH-SY5Y": {"system": "SH-SY5Y", "experiment": "Cytotoxicity against human SH-SY5Y cells assessed as reduction in cell viability by MTT assay", "format": "functional, cell-based"}, "[7]": {"experiment": "Cytotoxicity against human C8166 cells assessed as reduction in cell viability by MTT assay", "format": "toxicity, cell-based"}, "Pseudomonas aeruginosa": {"system": "Pseudomonas aeruginosa", "experiment": "Antibacterial activity against Pseudomonas aeruginosa NCIB 950 assessed as zone of inhibition incubated for 24 hrs by agar well diffusion method", "format": "functional"}, "[8]": {"system": "Geobacillus stearothermophilus", "experiment": "Antibacterial activity against Geobacillus stearothermophilus NCIB 8222 assessed as zone of inhibition incubated for 24 hrs by agar well diffusion method", "format": "functional"}, "Escherichia coli": {"system": "Escherichia coli", "experiment": "Antibacterial activity against Escherichia coli NCIB 86 assessed as zone of inhibition incubated for 24 hrs by agar well diffusion method", "format": "functional"}, "Bacillus subtilis": {"system": "Bacillus subtilis", "experiment": "Antibacterial activity against Bacillus subtilis NCIB 3610 assessed as zone of inhibition incubated for 24 hrs by agar well diffusion method", "format": "functional"}, "Bacillus cereus": {"system": "Bacillus cereus", "experiment": "Antibacterial activity against Bacillus cereus NCIB 6349 assessed as zone of inhibition incubated for 24 hrs by agar well diffusion method", "format": "functional"}, "Bacillus anthracis": {"system": "Bacillus anthracis", "experiment": "Antibacterial activity against clinical isolate Bacillus anthracis assessed as zone of inhibition incubated for 24 hrs by agar well diffusion method", "format": "functional"}, "Candida albicans": {"system": "Candida albicans", "experiment": "[…] activity against Candida albicans clinical isolate assessed as zone of inhibition incubated for 24 hrs by agar well diffusion method", "format": "functional"}, "Klebsiella pneumoniae": {"system": "Klebsiella pneumoniae", "experiment": "Antibacterial activity against Klebsiella pneumoniae NCIB 418 assessed as zone of inhibition incubated for 24 hrs by agar well diffusion method", "format": "functional"}, "Staphylococcus aureus": {"system": "Staphylococcus aureus", "experiment": "Antibacterial activity against Staphylococcus aureus NCIB 8588 assessed as zone of inhibition incubated for 24 hrs by agar well diffusion method", "format": "functional"}, "Shigella dysenteriae": {"system": "Shigella dysenteriae", "experiment": "Antibacterial activity against Shigella dysenteriae clinical isolate assessed as zone of inhibition incubated for 24 hrs by agar well diffusion method", "format": "functional"}, "Pseudomonas fluorescens": {"system": "Pseudomonas fluorescens", "experiment": "Antibacterial activity against Pseudomonas fluorescens NCIB 3756 assessed as zone of inhibition incubated for 24 hrs by agar well diffusion method", "format": "functional"}, "PMNL": {"system": "PMNL", "experiment": "Anti-inflammatory activity in human polymorphonuclear neutrophils assessed as reduction in cell movement incubated for 24 hrs by fluorescence analysis", "format": "functional, cell-based"}},
  "data": [
    {"smiles": "O=C1/C(=C/c2ccc(-c3ccc(CO)cc3)s2)Cc2ccccc21", "values": [
      {"measurement": "IC50", "setting": "RAW264.7", "result": 4, "unit": "µM"},
      {"measurement": "Kd", "setting": "[1]", "result": 0.39, "unit": "µM"}
    ]},
    {"smiles": "O=C1/C(=C/c2ccc(CO)o2)Oc2ccccc21", "values": [
      {"measurement": "inhibition at 50 µM", "setting": "THP-1 [2]", "result": 30, "unit": "%"},
      {"measurement": "inhibition at 40 µM", "setting": "THP-1 [3]", "result": 50, "unit": "%"}
    ]},
    {"smiles": "COc1cc2c(cc1OC)C(=O)/C(=C/c1ccccc1OCCc1cccs1)C2", "values": [
      {"measurement": "IC50", "setting": "[4]", "result": 0.62, "unit": "µM"}
    ]},
    {"smiles": "COc1cc2c(cc1O)C(=O)/C(=C/c1ccc(C(C)=O)cc1)O2", "values": [
      {"measurement": "IC50", "setting": "NB-4", "result": 3.4, "unit": "µM"},
      {"measurement": "selectivity ratio", "setting": "[5]", "result": 82},
      {"measurement": "IC50", "setting": "[6]", "result": 2.4, "unit": "µM"},
      {"measurement": "IC50", "setting": "SH-SY5Y", "result": 3.5, "unit": "µM"},
      {"measurement": "CC50", "setting": "[7]", "result": "> 200", "unit": "µM"}
    ]},
    {"smiles": "COc1ccc2c(c1)O/C(=C\\c1cn(-c3ccccc3)nc1-c1cccs1)C2=O", "values": [
      {"measurement": "inhibition zone (IZ)", "setting": "Pseudomonas aeruginosa", "result": 13, "unit": "mm"},
      {"measurement": "inhibition zone (IZ)", "setting": "[8]", "result": 13, "unit": "mm"},
      {"measurement": "inhibition zone (IZ)", "setting": "Escherichia coli", "result": 13, "unit": "mm"},
      {"measurement": "inhibition zone (IZ)", "setting": "Bacillus subtilis", "result": 13, "unit": "mm"},
      {"measurement": "inhibition zone (IZ)", "setting": "Bacillus cereus", "result": 13, "unit": "mm"},
      {"measurement": "inhibition zone (IZ)", "setting": "Bacillus anthracis", "result": 13, "unit": "mm"},
      {"measurement": "inhibition zone (IZ)", "setting": "Candida albicans", "result": 13, "unit": "mm"},
      {"measurement": "inhibition zone (IZ)", "setting": "Klebsiella pneumoniae", "result": 13, "unit": "mm"},
      {"measurement": "inhibition zone (IZ)", "setting": "Staphylococcus aureus", "result": 13, "unit": "mm"},
      {"measurement": "inhibition zone (IZ)", "setting": "Shigella dysenteriae", "result": 13, "unit": "mm"},
      {"measurement": "inhibition zone (IZ)", "setting": "Pseudomonas fluorescens", "result": 13, "unit": "mm"}
    ]},
    {"smiles": "CCOC(OCC)c1ccc(/C=C2\\Cc3ccccc3C2=O)cc1", "values": [
      {"measurement": "IC50", "setting": "PMNL", "result": 7, "unit": "µM"}
    ]}
  ]
}
